In brackets after ≈: the same amount, converted by molar mass. Like-named read-outs stand apart in the source and are kept apart here.
Columns and labels:
CHI Log D procedure = format: physicochemical; conditions: for CHI Log D: pH 7.4; for logD / chromatographic logD: pH 7.4, CHI Log D
Solubility in PBS = format: physicochemical
Outline: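 Solubility is derived from HPLC peak areas: the ratio of the PBS supernatant peak to a 50 μM DMSO peptide peak, times 50 uM.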

For CC(=O)N1CCC[C@]12CC=CCCCC1(CCCC=CCCCCCC[C@@](C)(C(=O)N[C@@H](Cc3ccccc3)C(=O)N[C@@H](C)C(=O)N[C@@H](CCC(N)=O)C(N)=O)NC(=O)[C@H](C(C)C)NC(=O)[C@H](Cc3ccccc3)NC(=O)[C@H](C)NC(=O)[C@H](C)NC(=O)[C@H](CC(=O)O)NC(=O)[C@H](CC(=O)O)NC1=O)NC(=O)[C@H](C)NC(=O)[C@H](CC(=O)O)NC2=O (stereo partly drawn) [I-358, Ac-PL3-Asp-Ala-B5-Asp-Asp-Ala-Ala-Phe-Val-S8-Phe-Ala-Gln-NH2], the “CHI Log D” value (CHI Log D procedure) was 1.882 and the “Solubility” value (Solubility in PBS) was 50 µM (≈ 83.3 µg/mL).
With CC(=O)N1CCC[C@]12CC=CCCCC1(CCCC=CCCCCCC[C@@](C)(C(=O)N[C@@H](Cc3ccccc3)C(=O)N[C@@H](Cc3csc4ccccc34)C(=O)N[C@@H](CCC(N)=O)C(N)=O)NC(=O)[C@H](CC(N)=O)NC(=O)[C@H](Cc3ccccc3)NC(=O)[C@H](C)NC(=O)[C@H](C)NC(=O)[C@H](CCC(=O)O)NC(=O)[C@H](CCNS(C)(=O)=O)NC1=O)NC(=O)[C@H](C)NC(=O)[C@H](CC(=O)O)NC2=O (stereo partly drawn) [I-531, Ac-PL3-Asp-Ala-B5-[MeSO2]Dab-Glu-Ala-Ala-Phe-Asn-S8-Phe-BztA-Gln-NH2] the “CHI Log D” value (CHI Log D procedure) was 2.794 and the “Solubility” value (Solubility in PBS) was 43 µM (≈ 81.3 µg/mL).
With CC(=O)N1CCC[C@]12CC=CCCCC1(CCCC=CCCCCCC[C@@](C)(C(=O)N[C@@H](Cc3ccccc3)C(=O)N[C@@H](Cc3c[nH]c4ccccc34)C(=O)N[C@@H](CCC(N)=O)C(N)=O)NC(=O)[C@H](C(C)C)NC(=O)[C@H](Cc3cn(C)cn3)NC(=O)[C@H](C)NC(=O)[C@H](C)NC(=O)[C@H](CC(=O)O)NC(=O)[C@H](CC(=O)O)NC1=O)NC(=O)[C@H](C)NC(=O)[C@H](CC(=O)O)NC2=O (stereo partly drawn) [I-330, Ac-PL3-Asp-Ala-B5-Asp-Asp-Ala-Ala-1meH-Val-S8-Phe-Trp-Gln-NH2] the “CHI Log D” value (CHI Log D procedure) was 2.047 and the “Solubility” value (Solubility in PBS) was 21 µM (≈ 37.5 µg/mL).
With CC(=O)N1CCC[C@]12CC=CCCCC1(CCCC=CCCCCCC[C@@](C)(C(=O)N[C@@H](Cc3ccccc3)C(=O)N[C@@H](Cc3c[nH]c4ccccc34)C(=O)N[C@@H](CCC(N)=O)C(N)=O)NC(=O)[C@H](C(C)C)NC(=O)[C@H](Cc3cn(C)cn3)NC(=O)[C@H](C)NC(=O)[C@H](C)NC(=O)[C@H](CC(=O)O)NC(=O)[C@H](CC(=O)O)NC1=O)NC(=O)[C@H](C)NC(=O)[C@H](CC(=O)O)NC2=O (stereo partly drawn) [I-329, Ac-PL3-Asp-Ala-B5-Asp-Asp-Ala-Ala-1meH-Val-S8-Phe-Trp-Gln-NH2] the “CHI Log D” value (CHI Log D procedure) was 2.01 and the “Solubility” value (Solubility in PBS) was 41 µM (≈ 73.2 µg/mL).
In the case of CC(=O)N1CCC[C@]12CC=CCCCC1(CCCC=CCCCOC(=O)N3CC[C@@](C(=O)N[C@@H](Cc4ccsc4)C(=O)N[C@@H](Cc4csc5ccccc45)C(=O)N[C@@H](CCC(N)=O)C(N)=O)(C3)NC(=O)[C@H](CC(N)=O)NC(=O)[C@H](Cc3ccccc3)NC(=O)[C@H](C)NC(=O)[C@H](CCCCNC(=O)c3ccc(-n4cc(CNC(=O)c5ccc6c(c5)C5(OC6=O)c6ccc(O)cc6Oc6cc(O)ccc65)nn4)cc3)NC(=O)[C@H](CC(C)C)NC(=O)[C@H](CC(=O)O)NC1=O)NC(=O)[C@H](CC(C)(C)C)NC(=O)[C@H](CC(=O)O)NC2=O (stereo partly drawn) [I-867, Ac-PL3-Asp-Npg-B5-Asp-Leu-[FAM6Ppg][p1TB]Lys-Ala-Phe-Asn-PyrS2-3Thi-BztA-Gln-NH2], the logD (CHI Log D procedure) is reported as 1.8 and the Solubility (Solubility in PBS; Solubility (uM)) is reported as 13 µM (≈ 32.9 µg/mL).
In the case of CC(=O)N1CCC[C@]12CC=CCCCC1(CCCC=CCCCCCC[C@@](C)(C(=O)N[C@@H](Cc3ccc(C(N)=O)cc3)C(=O)N[C@@H](Cc3csc4ccccc34)C(=O)N[C@@H](CCC(N)=O)C(N)=O)NC(=O)[C@H](C(C)C)NC(=O)[C@H](Cc3ccccc3)NC(=O)[C@H](C)NC(=O)[C@H](C)NC(=O)[C@H](CC(=O)O)NC(=O)[C@H](CC(=O)O)NC1=O)NC(=O)[C@H](C)NC(=O)[C@H](CC(=O)O)NC2=O (stereo partly drawn) [I-338, Ac-PL3-Asp-Ala-B5-Asp-Asp-Ala-Ala-Phe-Val-S8-4CBMF-BztA-Gln-NH2], the “CHI Log D” value (CHI Log D procedure) is reported as 1.586 and the “Solubility” value (Solubility in PBS) is reported as 47 µM (≈ 86.5 µg/mL).
In the case of CC(=O)N1CCC[C@]12CC=CCCCC1(CCCC=CCCCCCC[C@@](C)(C(=O)N[C@@H](Cc3cn(C)cn3)C(=O)N[C@@H](Cc3csc4ccccc34)C(=O)N[C@@H](CCC(N)=O)C(N)=O)NC(=O)[C@H](CC(N)=O)NC(=O)[C@H](Cc3ccccc3)NC(=O)[C@H](C)NC(=O)[C@H](C)NC(=O)[C@H](CCC(=O)O)NC(=O)[C@H](CC(=O)O)NC1=O)NC(=O)[C@H](C)NC(=O)[C@H](CC(=O)O)NC2=O (stereo partly drawn) [I-440, Ac-PL3-Asp-Ala-B5-Asp-Glu-Ala-Ala-Phe-Asn-S8-1meH-BztA-Gln-NH2], the “CHI Log D” value (CHI Log D procedure) is reported as 1.613 and the “Solubility” value (Solubility in PBS) is reported as 50 µM (≈ 91.6 µg/mL).
For CC[C@H](C)[C@@H]1NC(=O)[C@H](CC(=O)O)NC(=O)[C@]2(CC=CCCCC3(CCCC=CCCCCCC[C@@](C)(C(=O)N[C@@H](Cc4ccccc4)C(=O)N[C@@H](Cc4csc5ccccc45)C(=O)N4CCC[C@H]4C(N)=O)NC(=O)[C@H](CCC(N)=O)NC(=O)[C@H](Cc4ccccc4)NC(=O)[C@H](C)NC(=O)[C@H](C)NC(=O)[C@H](CCC(=O)O)NC(=O)[C@H](CC(=O)O)NC3=O)NC1=O)CCCN2C(C)=O (stereo partly drawn) [I-637, Ac-PL3-Asp-Ile-B5-Asp-Glu-Ala-Ala-Phe-Gln-S8-Phe-BztA-Pro-NH2], the “CHI Log D” value (CHI Log D procedure) was 2.554 and the “Solubility” value (Solubility in PBS) was 50 µM (≈ 92.6 µg/mL).
In the case of CC(=O)N1CCC[C@]12CC=CCCCC1(CCCC=CCCCCCC[C@@](C)(C(=O)N[C@@H](Cc3ccc(C(N)=O)cc3)C(=O)N[C@@H](Cc3csc4ccccc34)C(=O)N[C@@H](CCC(N)=O)C(N)=O)NC(=O)[C@H](C(C)C)NC(=O)[C@H](Cc3ccccc3)NC(=O)[C@H](C)NC(=O)[C@H](C)NC(=O)[C@H](CC(=O)O)NC(=O)[C@H](CC(=O)O)NC1=O)NC(=O)[C@H](C)NC(=O)[C@H](CC(=O)O)NC2=O (stereo partly drawn) [I-337, Ac-PL3-Asp-Ala-B5-Asp-Asp-Ala-Ala-Phe-Val-S8-4CBMF-BztA-Gln-NH2], the “CHI Log D” value (CHI Log D procedure) is reported as 1.579 and the “Solubility” value (Solubility in PBS) is reported as 48 µM (≈ 88.4 µg/mL).
For CC[C@H](C)[C@@H]1NC(=O)[C@H](CC(=O)O)NC(=O)[C@]2(CC=CCCCC3(CCCC=CCCCCCC[C@@](C)(C(=O)N[C@@H](Cc4ccccc4)C(=O)N[C@@H](Cc4ccccc4)C(=O)N[C@@H](CCC(N)=O)C(N)=O)NC(=O)[C@H](CCC(N)=O)NC(=O)[C@H](Cc4csc5ccccc45)NC(=O)[C@H](C)NC(=O)[C@H](C)NC(=O)[C@H](CCC(=O)O)NC(=O)[C@H](CC(=O)O)NC3=O)NC1=O)CCCN2C(C)=O (stereo partly drawn) [I-585, Ac-PL3-Asp-Ile-B5-Asp-Glu-Ala-Ala-BztA-Gln-S8-Phe-Phe-Gln-NH2], the “CHI Log D” value (CHI Log D procedure) was 2.364 and the “Solubility” value (Solubility in PBS) was 50 µM (≈ 94.2 µg/mL).
In the case of CC(=O)N1CCC[C@]12CC=CCCCC1(CCCC=CCCCCCC[C@@](C)(C(=O)N[C@@H](Cc3ccccc3)C(=O)N[C@@H](Cc3c[nH]c4ccccc34)C(=O)N[C@@H](CCC(N)=O)C(N)=O)NC(=O)[C@H](C(C)C)NC(=O)[C@H](Cc3ccccc3)NC(=O)[C@H](C)NC(=O)[C@H](C)NC(=O)[C@H](Cc3cccc(F)c3)NC(=O)[C@H](CC(=O)O)NC1=O)NC(=O)[C@H](C)NC(=O)[C@H](CC(=O)O)NC2=O (stereo partly drawn) [I-257, Ac-PL3-Asp-Ala-B5-Asp-3FF-Ala-Ala-Phe-Val-S8-Phe-Trp-Gln-NH2], the chromatographic logD (CHI Log D procedure) is reported as 2.91 and the “Solubility” value (Solubility in PBS) is reported as 10 µM (≈ 18.3 µg/mL).
Work on CC(=O)N1CCC[C@]12CC=CCCCC1(CCCC=CCCCCCC[C@@](C)(C(=O)N[C@@H](CC(N)=O)C(=O)N[C@@H](Cc3c[nH]c4ccccc34)C(=O)N[C@@H](CCC(N)=O)C(N)=O)NC(=O)[C@H](C(C)C)NC(=O)[C@H](Cc3ccccc3)NC(=O)[C@H](C)NC(=O)[C@H](C)NC(=O)[C@H](CC(=O)O)NC(=O)[C@H](CC(=O)O)NC1=O)NC(=O)[C@H](C)NC(=O)[C@H](CC(=O)O)NC2=O (stereo partly drawn) [I-284, Ac-PL3-Asp-Ala-B5-Asp-Asp-Ala-Ala-Phe-Val-S8-Asn-Trp-Gln-NH2] yielded a chromatographic logD (CHI Log D procedure) of 1.52 and a Solubility (Solubility in PBS; Solubility (uM)) of 40 µM (≈ 69.9 µg/mL).
For CC(=O)N1CCC[C@]12CC=CCCCC1(CCCC=CCCCOC(=O)N3CC[C@@](C(=O)N[C@@H](Cc4ccsc4)C(=O)N[C@@H](Cc4csc5ccccc45)C(=O)N[C@@H](CCC(N)=O)C(=O)N[C@H](C)C(=O)N[C@H](C)C(=O)N[C@H](C)C(N)=O)(C3)NC(=O)[C@H](CC(N)=O)NC(=O)[C@H](Cc3ccccc3)NC(=O)[C@H](C)NC(=O)[C@H](C)NC(=O)[C@H](CC(=O)O)NC(=O)[C@H](CC(=O)O)NC1=O)NC(=O)[C@H](CC(C)(C)C)NC(=O)[C@H](CC(=O)O)NC2=O (stereo partly drawn) [I-872, Ac-PL3-Asp-Npg-B5-Asp-Asp-Ala-Ala-Phe-Asn-PyrS2-3Thi-BztA-Gln-dAla-dAla], the logD (CHI Log D procedure) was 1.89 and the “Solubility” value (Solubility in PBS) was 50 µM (≈ 107 µg/mL).
For CC(=O)N1CCC[C@]12CC=CCCCC1(CCCC=CCCCCCC[C@@](C)(C(=O)N[C@@H](Cc3ccccc3)C(=O)N[C@@H](Cc3csc4ccccc34)C(=O)N[C@@H](CCC(N)=O)C(N)=O)NC(=O)[C@H](CCC(N)=O)NC(=O)[C@H](Cc3ccccc3)NC(=O)[C@H](C)NC(=O)[C@H](C)NC(=O)[C@H](CCC(=O)O)NC(=O)[C@H](CC(=O)O)NC1=O)NC(=O)[C@H](C)NC(=O)[C@H](Cc1nn[nH]n1)NC2=O (stereo partly drawn) [I-417, Ac-PL3-tetz-Ala-B5-Asp-Glu-Ala-Ala-Phe-Gln-S8-Phe-BztA-Gln-NH2], the “CHI Log D” value (CHI Log D procedure) was 2.085 and the “Solubility” value (Solubility in PBS) was 30 µM (≈ 56 µg/mL).
For CC(=O)N1CCC[C@]12CC=CCCCC1(CCCC=CCCCCCC[C@@](C)(C(=O)N[C@@H](Cc3ccccc3)C(=O)N[C@@H](Cc3csc4ccccc34)C(N)=O)NC(=O)[C@H](CC(N)=O)NC(=O)[C@H](Cc3ccccc3)NC(=O)[C@H](C)NC(=O)[C@H](C)NC(=O)[C@H](CCC(=O)O)NC(=O)[C@H](CC(=O)O)NC1=O)NC(=O)[C@H](CC1CCCCC1)NC(=O)[C@H](CC(=O)O)NC2=O (stereo partly drawn) [I-626, Ac-PL3-Asp-Cha-B5-Asp-Glu-Ala-Ala-Phe-Asn-S8-Phe-BztA-NH2], the “CHI Log D” value (CHI Log D procedure) was 2.048 and the “Solubility” value (Solubility in PBS) was 50 µM (≈ 89.1 µg/mL).
For CC(=O)N1CCC[C@]12CC=CCCCC1(CCCC=CCCCCCC[C@@](C)(C(=O)N[C@@H](Cc3ccccc3)C(=O)N[C@@H](Cc3c[nH]c4ccccc34)C(=O)N[C@@H](CCC(N)=O)C(N)=O)NC(=O)[C@H](C(C)C)NC(=O)[C@H](Cc3ccccc3)NC(=O)[C@H](C)NC(=O)[C@H](C)NC(=O)[C@H](CC(=O)O)NC(=O)[C@H](C)NC1=O)NC(=O)[C@H](C)NC(=O)[C@H](CC(=O)O)NC2=O (stereo partly drawn) [I-351, Ac-PL3-Asp-Ala-B5-Ala-Asp-Ala-Ala-Phe-Val-S8-Phe-Trp-Gln-NH2], the “CHI Log D” value (CHI Log D procedure) was 2.944 and the “Solubility” value (Solubility in PBS) was 50 µM (≈ 86.9 µg/mL).
